Source: patent US20100129790A1, “Method for Determining Phospholipidosis” (TAKEDA PHARMACEUTICAL LIMITED, priority 2005, published 2010)
Read-outs that look alike come from different tables or passages of the source.

Legend:
blood [1] = assay: GeneChip analysis of blood (Rat Expression Array 230A), 3-day administration; type: in vivo; conditions: rat blood 24 hr after 3 consecutive days of oral administration, pooled, 3 rats per group; dose per compound in table
Description: (§1) At 24 hr after completion of the oral administration for 3 consecutive days in Example 1, the blood was collected from the compound administration group and the control (non-administration) group (3 rats per group), which was pooled and subjected to GeneChip analysis.
(§2) After collection using PAXgene Blood RNA Tube (PreAnalytiX), the blood was stood for 2 hr or more, and cryopreserved at −80° C. Total RNA was extracted using a PAXgene Blood RNA Kit (PreAnalytiX). A sample for GeneChip analysis was prepared and analyzed according to the protocol provided by Affymetrix Inc. cDNA synthesis reaction was carried out using a SuperScript Choice system (Invitrogen), then biotin-labeled cRNA synthesis reaction was carried out using Enzo BioArray HighYield RNA Transcript Labeling Kit (Affymetrix), after which cRNA was fragmented and a labeled sample was prepared. The labeled sample was hybridized to Rat Expression Array 230A (RAE230A, Affymetrix), the array was stained, washed and scanned by GeneChip system (Affymetrix), and the following three image data were obtained from one sheet of array.
1. data of staining by a method omitting fluorescence amplification reaction by antibody 2. data of staining by the method described in a manual for once performing fluorescence amplification reaction by antibody 3. data of staining by a method for twice performing fluorescence amplification reaction by antibody
(§3) From the image data, measurement value (Signal), numerical data such as Signal Log Ratio and the like and determination data such as Detection, Change and the like were obtained using MicroarraySuite5.0 (parameter: Default value). Fold Change was calculated from Signal Log Ratio of the image data 2 using the conversion equation of Fold Change=2^Signal Log Ratio.
(§4) (*In GeneChip analysis using RAE230A, 11 sites per one measurement target sequence are measured, and the measurement results at 11 sites are combined to give one numerical value and determination data. RAE230A contains 15924 combinations of 11 site measurement sets, and each measurement set is referred to as a probe set.)
(§5) A probe set wherein two or more of the above-mentioned three image data satisfy the following three conditions was taken as a variation probe set.
(§6) 1. A probe set judged as Increase or Decrease by MicroarraySuite5.0 2. A probe set whose higher measurement value (Signal) was judged as Presence by MicroarraySuite5.0 3.

Crj:CD(SD)IGS rats [2] = conditions: rat, in vivo
Description: After completion of the administration, in all animals, livers, kidneys, spleens, lungs and mesenteric lymph nodes were sampled, these sampled tissues were examined for histopathological changes by conventional methods of optical microscopy and electron microscopy. In addition, a blood smear sample (Giemsa stain sample) was prepared, and the vacuolated lymphocyte ratio of the peripheral blood was measured with observation under a microscope.

Crj:CD(SD)IGS rats [3] = conditions: rat, in vivo; remark: listed apart in the source
blood [4] = assay: GeneChip analysis of blood (Rat Expression Array 230A), 7-day administration; type: in vivo; conditions: rat blood 24 hr after 7 consecutive days of oral administration, pooled, 4 rats per group; dose per compound in table
Description: as §2, §3, §4, §5, §6
as §1, with “7” for “3”, “3,” for “1,”, “(4” for “(3”, “analysis in the same manner as in Example 2.” for “analysis.”

| Structure (SMILES) | Number of expression variation probe sets, Decreased expression (blood [1]) | Number of expression variation probe sets, Increased expression (blood [1]) | Histopathological findings (PLsis) Kidney (Crj:CD(SD)IGS rats [2]) | Histopathological findings (PLsis) Liver (Crj:CD(SD)IGS rats [2]) | Histopathological findings (PLsis) Lung (Crj:CD(SD)IGS rats [2]) | Histopathological findings (PLsis) Lymph node (Crj:CD(SD)IGS rats [2]) | Histopathological findings (PLsis) Spleen (Crj:CD(SD)IGS rats [2]) | Histopathological findings (PLsis) Liver (Crj:CD(SD)IGS rats [3]) | Histopathological findings (PLsis) Lung (Crj:CD(SD)IGS rats [3]) | Histopathological findings (PLsis) Lymph node (Crj:CD(SD)IGS rats [3]) | Histopathological findings (PLsis) Others (Crj:CD(SD)IGS rats [3]) | Histopathological findings (PLsis) Spleen (Crj:CD(SD)IGS rats [3]) | Number of expression variation probe sets, Decreased expression (blood [4]) | Number of expression variation probe sets, Increased expression (blood [4]) |
| --- | --- | --- | --- | --- | --- | --- | --- | --- | --- | --- | --- | --- | --- | --- |
| CCCCc1oc2ccccc2c1C(=O)c1cc(I)c(OCCN(CC)CC)c(I)c1 [Amiodarone, amiodarone] | 282 | 613 | − | − | ++ | ++ | − | − | + | + | − | + | 457 | 515 |
| CCN(CC)CCCC(C)Nc1ccnc2cc(Cl)ccc12 (stereo not drawn) [Chloroquine, chloroquine] | 318 | 382 | − | + | − | − | + | − | − | + | − | + | 179 | 310 |
| C1CCC(C(CC2CCCCN2)C2CCCCC2)CC1 (stereo not drawn) [Perhexiline, perhexiline] | 179 | 310 | − | − | + | + | − | − | + | + | − | + | 83 | 49 |
| CCN(CC)CCCC(C)Nc1c2ccc(Cl)cc2nc2ccc(OC)cc12 (stereo not drawn) [Quinacrine, quinacrine] | 392 | 240 | + | ++ | + | − | + | + | + | + | − | − | 103 | 258 |
| CC/C(=C(\c1ccccc1)c1ccc(OCCN(C)C)cc1)c1ccccc1 [Tamoxifen, tamoxifen] | 94 | 258 | − | − | + | ++ | − | + | + | + | − | − | 368 | 546 |

Second part, the compound after the results:

| Number of expression variation probe sets, Decreased expression (blood [1]) | Number of expression variation probe sets, Increased expression (blood [1]) | Histopathological findings (PLsis) Kidney (Crj:CD(SD)IGS rats [2]) | Histopathological findings (PLsis) Liver (Crj:CD(SD)IGS rats [2]) | Histopathological findings (PLsis) Lung (Crj:CD(SD)IGS rats [2]) | Histopathological findings (PLsis) Lymph node (Crj:CD(SD)IGS rats [2]) | Histopathological findings (PLsis) Spleen (Crj:CD(SD)IGS rats [2]) | Histopathological findings (PLsis) Liver (Crj:CD(SD)IGS rats [3]) | Histopathological findings (PLsis) Lung (Crj:CD(SD)IGS rats [3]) | Histopathological findings (PLsis) Lymph node (Crj:CD(SD)IGS rats [3]) | Histopathological findings (PLsis) Others (Crj:CD(SD)IGS rats [3]) | Histopathological findings (PLsis) Spleen (Crj:CD(SD)IGS rats [3]) | Number of expression variation probe sets, Decreased expression (blood [4]) | Number of expression variation probe sets, Increased expression (blood [4]) | Structure (SMILES) |
| --- | --- | --- | --- | --- | --- | --- | --- | --- | --- | --- | --- | --- | --- | --- |
| 391 | 372 |  |  |  |  |  | + | + | + | brain | − |  |  | CNCCC(Oc1ccc(C(F)(F)F)cc1)c1ccccc1 (stereo not drawn) [Fluoxetine, fluoxetine] |
|  |  | − | ++ | + | − | − |  |  |  |  |  | 320 | 123 | CN(C)CCCN1c2ccccc2CCc2ccccc21 [Imipramine, imipramine] |
